Assay results as given in patent US20250085273A1, “NOVEL RAPID DRUG DISCOVERY FOR SEPSIS AND AGENTS FOR USE AS SEPSIS THERAPY” (priority 2023, published 2025).
Where a name gives a salt, the structure may show the parent alone. Read-outs that look alike come from different tables or passages of the source.

Tests used:
Assay type in all cases: in vivo, Danio rerio
[1] = test system: zebrafish exposed to P. aeruginosa LPS; assay: Model compound testing in the optimized zebrafish sepsis model (varying LPS dose ranges); settings: for complete rescue of exposed fish: 60 μg/mL LPS challenge concentration
Procedure: Three sources of LPS were evaluated: E. coli 0111:B4, P. aeruginosa Sigma L9143, and K. pneumoniae. E. coli 0111:B4 LPS was selected as the reference LPS used by Philip et al. (2017). P. aeruginosa LPS is commonly associated with infections in hospitals, accounting for an estimated 32,600 cases and resulting in an estimated 2,700 deaths in 2017 (CDC Report 2019). P. aeruginosa infections are also a common cause of sepsis in both patients with severe burns and immunocompromised patients. K. pneumoniae LPS has military relevance related to battlefield injury infections (Kiley et al., 2021). Initial range finding LC50 tests with larval zebrafish were conducted for each LPS strain at both 3-dpf and 5-dpf. […] (E. coli 0111:B4 was also tested at higher concentrations, 400, 800, and 1000 μg/mL due a lack of toxicity within the initial dose range.) Well plates were then covered with parafilm and placed into an incubator at 28.5° C. for 24 hours. After 6 and 24 hours, the plates were removed and scored for mortality, tail edema, and ROS production. The tail edema endpoint evaluates vascular leakage from caudal fin in response to LPS exposure (FIG. 2). ROS production was determined as described by Philip et al. (2017) by adding 2,7-dichloroflurescein diacetate (100 μM) to the wells containing the zebrafish larvae and incubating them in a 100% dark photoperiod incubator at 28.5° C. for one hour. Florescent images of the incubated zebrafish were then captured with a Keyence BZ-X710 fluorescent microscope using 10× objective with a GFP filter and fixed 1/15 second exposure for all imaging. […] Results from the LPS toxicity testing and endpoint screening were used to develop the optimized testing procedure through evaluation in selected model compounds, as described in the next section and in the results.
The optimized zebrafish sepsis model was evaluated against compounds previously shown to have efficacy in previous zebrafish sepsis models: fasudil, hydrocortisone, dexamethasone, and fisetin. Fasudil, an anti-vascular leakage compound (inhibitor of the RhoA/Rho-kinase pathway) was shown by Philip et al. (2017) to rescue zebrafish from LPS-induced mortality, ROS production, and tail fin edema. Fasudil also rescued LPS-induced vascular leakage in murine models of experimental sepsis (Li et al., 2010) and reduced acute lung injury in septic rats through inhibition of the Rho/ROCK signaling pathway (Wang et al., 2018). […] Endpoints evaluated with model compounds included mortality, tail edema, and ROS at 6- and 24-hours post exposure to varying dose ranges of LPS.
LC50s for the LPS tests were determined using the Trimmed Spearmen-Karber method (Hamilton et al., 1977). The tail edema and mortality data from the initial and confirmatory drug testing was analyzed using GraphPad Prism 9 using Fisher's Exact Test. Each drug treatment group was compared pairwise with the on-board positive control group on each test plate. Statistical significance was determined with values of p≤0.05. Neurological behavioral testing data was analyzed by Ethovision software that produced an activity analysis profile per frame for each well of the 96 well plates. Any dead embryos were removed from the data set, and the remaining data set was imported into Excel. […] The behavioral data was then statistically analyzed by drug per phase using a 2 tailed t-test to determine statistical significance p≤0.01.

[2] = test system: 3-dpf Zebrafish Embryos Challenged with LPS (P. aeruginosa 60 μg/mL); settings: P. aeruginosa LPS 60 μg/mL, compound 10 μM; for 3 dpf Embryos Percent Rescue (Mort + Tail Edema): initial 3-dpf screen shown for reference; for Percent Rescue (Mort + Tail Edema): 3-dpf embryos, n=16; for Percent Rescue (Mort + Tail Edema) / rescue of tail edema and mortality (sepsis rescue rate) at 3-dpf: 24 hours
Procedure: Healthy, normally developing embryos collected from the adult AB zebrafish spawning events were treated with 75 μM of 1-phenyl 2-thiourea (PTU) in EM prior to 24 hours post fertilization (hpf) to block pigmentation formation (Karlsson et al, 2001). These embryos were then placed into an incubator at 28.5° C. until they reached 3-dpf. Embryos were then removed from the incubator and plated individually into the wells of 96 well plates containing 50 μL of EM.
A super stock of 120 μg/mL of P. aeruginosa LPS was made up in EM in a glass container. This stock was then used to make sub stocks of 120 μg/mL P. aeruginosa LPS (positive control) and 120 μg/mL P. aeruginosa LPS containing 20 μM of test drug in glass scintillation vials. Immediately after the sub stocks were made, the wells were dosed with either 50 μL of 120 μg/mL of P. aeruginosa, 120 μg/mL of P. aeruginosa with 20 μM of test drug, or EM (1:1 Dilution). Each 96 well plate had one LPS positive control (n=16), 4 different test drugs with P. aeruginosa LPS (n=16 per drug), and one negative control (n=16). Once the plates were dosed, they were covered with parafilm and placed into an incubator at 28.5° C. The plates were removed at 6- and 24-hours post exposure to be scored for tail edema and mortality. All 644 drugs evaluated for rescue from mortality and tail edema induced by P. aeruginosa LPS exposure as compared to LPS-treated controls after 24 hours of exposure.
3-dpf embryos were challenged with 60 μg/mL P. aeruginosa LPS in combination with single 10 μM concentration of each compound for 24 hours (n=16 fish per compound). […] Other 29 compounds exceeded 60% rescue of tail edema and mortality at 24 hours post exposure.

[3] = test system: 5-dpf zebrafish larvae challenged with P. aeruginosa LPS 60 μg/mL; settings: compound 10 μM; for 5 dpf Embryos Percent Rescue (Mort + Tail Edema): 5-dpf larvae
From the text: Confirmatory testing followed the same methods as the initial testing but used 5-dpf larvae instead of the 3-dpf larvae that were used for the initial screening because they were easier to handle and replicated the methods of Philip et al. (2017).
Next, follow-on 5-dpf screening was implemented to confirm initial screening with more larvae. Zebrafish swim faster at 5-dpf (requiring more time to load 96 plates), and all major organ systems are functioning at 5-dpf and thus determined as advantageous for follow-on confirmation.

[4] = test system: larval zebrafish exposed to Pseudomonas aeruginosa 60 μg/mL lipopolysaccharide (LPS); assay: Zebrafish endotoxicity/sepsis model drug screening, statements without larval stage; settings: for rescue from mortality / rescue from vascular damage (tail edema): zebrafish endotoxemia model
From the text: To identify potential sepsis drug candidates, an optimized larval zebrafish model of endotoxicity/sepsis was used to screen commercial libraries of U.S. Food and Drug Administration (FDA)-approved drugs and other active pharmaceutical ingredients (API) known to affect pathways implicated in the initiation and progression of sepsis in humans (i.e., inflammation, mitochondrial dysfunction, coagulation, and apoptosis). In this model, endotoxicity was induced in 3- and 5-day post fertilization larval zebrafish (characterized by mortality and tail fin edema (vascular leakage)) by immersion exposure to Pseudomonas aeruginosa 60 μg/mL lipopolysaccharide (LPS) for 24 hours, then screened for the rescue potential of 644 selected drugs simultaneously with LPS at 10 μM. After LPS exposure, a neurobehavioral assay (light-dark test) was performed to further evaluate rescue from endotoxicity and to determine possible off-target drug side effects.

[5] = test system: zebrafish (4 dpf pre-treated, LPS exposure at 5-dpf) challenged with P. aeruginosa LPS 60 μg/mL; settings: for 24 hour Tail Edema, No-Drug Pretreatment / 24 Hour Mortality and Tail Edema, Drug Pretreatment / 24 Hour Mortality, Drug Pretreatment / 24 hour Tail Edema, Drug Pretreatment / 24 Hour Mortality and Tail Edema, No-Drug Pretreatment / 24 Hour Mortality, No Drug Pretreatment: number of n = 16 fish; for 24 hour Tail Edema, No-Drug Pretreatment: 10 μM drug with LPS 60 μg/mL; for 24 hour Tail Edema, No-Drug Pretreatment / 24 Hour Mortality and Tail Edema, No-Drug Pretreatment / 24 Hour Mortality, No Drug Pretreatment: no 24-hour pre-treatment; for 24 Hour Mortality and Tail Edema, Drug Pretreatment / 24 Hour Mortality, Drug Pretreatment: 24-hour 10 μM drug pre-treatment; for 24 hour Tail Edema, Drug Pretreatment: 24-hour 10 μM drug pre-treatment before LPS 60 μg/mL
Procedure: Drugs identified with >80% rescue were subjected to additional testing. Drug pretreatment for 24 hours prior to LPS challenge was evaluated to determine if any prophylactic benefit could be realized with any of the top rescue drugs. The intent was to determine if drug pre-treatment might be used at the point of injury as a preventative therapeutic before the onset of infection and development of sepsis. Parallel groups of fish received a 24-hour drug pre-treatment or no drug pre-treatment prior to LPS challenge. For this test, 4 dpf PTU-treated zebrafish embryos were placed into 96 well plates containing 100 μL of EM. […] All plates were covered with parafilm and placed into an incubator at 28.5° C. for 24 hours. […] Once the plates were dosed, they were covered with parafilm and placed into an incubator at 28.5° C. The plates were removed at 6- and 24-hours post exposure and scored for tail edema and mortality. Once the 24-hour tail edema and mortality endpoints were collected, a neurobehavioral test was conducted as described in section 2.8.

| Molecule | 3 dpf Embryos Percent Rescue (Mort + Tail Edema) [2] [%] | 5 dpf Embryos Percent Rescue (Mort + Tail Edema) [3] [%] | Percent Rescue (Mort + Tail Edema) [2] [%] | rescue of tail edema and mortality (sepsis rescue rate) at 3-dpf [2] [%] | rescue of tail edema and mortality (sepsis rescue rate) at 5-dpf [3] [%] | 24 hour Tail Edema, No-Drug Pretreatment [5] [fish] | 24 Hour Mortality and Tail Edema, Drug Pretreatment [5] [fish] | 24 Hour Mortality, Drug Pretreatment [5] [fish] | 24 hour Tail Edema, Drug Pretreatment [5] [fish] | 24 Hour Mortality and Tail Edema, No-Drug Pretreatment [5] [fish] | 24 Hour Mortality, No Drug Pretreatment [5] [fish] | further results |
| --- | --- | --- | --- | --- | --- | --- | --- | --- | --- | --- | --- | --- |
| O=S(=O)(c1cccc2cnccc12)N1CCCNCC1 [Fasudil] | – | – | – | – | – | – | – | – | – | – | – | complete rescue of exposed fish [1]: Neither compound showed complete rescue; mortality at 24 hours post exposure ([1]; 24 hours post LPS exposure): statistically significant (p=0.0233) reduction in mortality |
| O=C(O)c1cn(C2CC2)c2cc(N3CCNCC3)c(F)cc2c1=O [Compound 34, Ciprofloxacin (hydrochloride monohydrate)] | 13 | 6 | – | – | – | – | – | – | – | – | – | rescue from mortality [4]: provided rescue from mortality; rescue from vascular damage (tail edema) [4]: did not elicit rescue from vascular damage |
| CN1C2CCCC1CC(NC(=O)c1nn(C)c3ccccc13)C2 (centres unmarked) [Granisetron] | – | – | – | – | – | – | – | – | – | – | – | rescue from mortality [4]: significant reduction in mortality; rescue from vascular damage (tail edema) [4]: did not rescue from vascular damage (tail edema) |
| CCN(CC)CCNC(=O)c1c(C)[nH]c(/C=C2\C(=O)Nc3ccc(F)cc32)c1C [Compound 97, Sunitinib] | 81 | 100 | 81 | 81 | 100 | 4 | 4 | 3 | 1 | 7 | 3 | Pre-Treatment Rescue (n = 16) ([5]; 24-hour drug pre-treatment, P. aeruginosa LPS 60 μg/mL): 88%; No Pre-Treatment Rescue (n = 16) ([5]; no 24-hour drug pre-treatment, P. aeruginosa LPS 60 μg/mL): 69% |
| O=C(c1ccc(F)cc1)C1CCN(CCn2c(=O)[nH]c3ccccc3c2=O)CC1 [Compound 437, Ketanserin (tartrate)] | 100 | 100 | 100 | 100 | 100 | 0 | 0 | 0 | 0 | 0 | 0 | rescue of tail edema and mortality (sepsis rescue rate) at 5-dpf ([3]; listed as ketanserin tartrate): 100% |
| Cc1nccn1CC1CCc2c(c3ccccc3n2C)C1=O (centres unmarked) [Ondansetron] | – | – | – | – | – | – | – | – | – | – | – | efficacy in the zebrafish endotoxicity sepsis model ([4]; in vivo): not efficacious |
| COc1nc2ccc(Br)cc2cc1[C@@H](c1ccccc1)[C@@](O)(CCN(C)C)c1cccc2ccccc12 [Compound 227, Bedaquiline] | 75 | 75 | 75 | – | – | 0 | 16 | 16 | 0 | 16 | 16 | – |
| Clc1ccc(CCCOCCCN2CCCCC2)cc1 [Compound 435, Pitolisant] | 94 | 88 | 94 | 94 | 88 | 2 | 16 | 16 | 0 | 15 | 13 | – |
| O=c1c(O)c(-c2ccc(O)c(O)c2)oc2cc(O)ccc12 [Fisetin] | – | – | – | – | – | – | – | – | – | – | – | complete rescue of exposed fish [1]: Neither compound showed complete rescue |
| Ferric citrate [Compound 340] | 94 | 81 | 94 | 94 | 81 | 2 | 15 | 15 | 0 | 15 | 13 | fish with tail edemas ([4]; 6 hours post exposure): 9 of 16 fish; fish with tail edema ([4]; 24 hours): 1 of 16 |
